Source: PubChem BioAssay AID256 (DTP/NCI, 2004)
“And” between values parts separate entries of the source, which are not always exact repeats. Identical values can stand only once. Toxic doses and inconclusive results are not listed.

System: CD2F1 mice, L1210 leukemia ip, survival T/C
Experiment: NCI In Vivo Anticancer Drug Screen. Data for tumor model L1210 Leukemia (intraperitoneal) in CD2F1 (CDF1) mice
Conditions: higher = longer survival
Procedure, shortened: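 Ratio T/C, where T is the treated-group value and C the vehicle-dosed control value, from mice implanted with a transplantable tumor.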

[1] = endpoint: mean survival time, dose: 50.0 mg/kg/injection, schedule: Q01DX009 (ip), vehicle: saline with Tween-80
[2] = endpoint: mean survival time, dose: 100.0 mg/kg/injection, schedule: Q01DX009 (ip), vehicle: saline with Tween-80
[3] = endpoint: mean survival time, dose: 200.0 mg/kg/injection, schedule: Q01DX009 (ip), vehicle: saline with Tween-80
[4] = endpoint: mean survival time, dose: 50.0 mg/kg/injection, schedule: Q04DX002 (ip), vehicle: saline with Tween-80
[5] = endpoint: mean survival time, dose: 100.0 mg/kg/injection, schedule: Q04DX002 (ip), vehicle: saline with Tween-80
[6] = endpoint: mean survival time, dose: 200.0 mg/kg/injection, schedule: Q04DX002 (ip), vehicle: saline with Tween-80

Structure (SMILES): N\C([S-])=N/N=C\C(=N/N=C(\N)[S-])C(O)C(O)C(O)CO.[Pd+2] (stereo unspecified)
- T/C [1]: 112 % of control
- T/C [2]: 104 % of control
- T/C [3]: 89 % of control

Structure (SMILES): O=C(CCl)Nc1ccc(-c2c(NC(=O)CCl)ncc3ccccc23)cc1
- T/C (endpoint: mean survival time, dose: 18.75 mg/kg/injection, schedule: Q04DX003 (ip), vehicle: other): 100 % of control
- T/C (endpoint: mean survival time, dose: 37.5 mg/kg/injection, schedule: Q04DX003 (ip), vehicle: other): 108 % of control
- T/C (endpoint: mean survival time, dose: 75.0 mg/kg/injection, schedule: Q04DX003 (ip), vehicle: other): 108 % of control
- T/C (endpoint: mean survival time, dose: 150.0 mg/kg/injection, schedule: Q04DX003 (ip), vehicle: other): 108 % of control

Structure (SMILES): CCCC(=O)/C=C\c1ccccc1
- T/C [4]: 102 % of control
- T/C [5]: 102 % of control
- T/C [6]: 91 % of control
- T/C (endpoint: mean survival time, dose: 400.0 mg/kg/injection, schedule: Q04DX002 (ip), vehicle: saline with Tween-80): 94 % of control

Structure (SMILES): CN(N)C1CCCCC1
- T/C (endpoint: mean survival time, dose: 75.0 mg/kg/injection, schedule: Q01DX001 (ip), vehicle: saline): 100 % of control
- T/C (endpoint: mean survival time, dose: 150.0 mg/kg/injection, schedule: Q01DX001 (ip), vehicle: saline): 100 % of control

Structure (SMILES): Cc1ccc(S(=O)C(c2ccccc2)C(c2ccccc2)C(C)O)cc1 (stereo unspecified)
- T/C (endpoint: mean survival time, dose: 100.0 mg/kg/injection, schedule: Q04DX003 (ip), vehicle: saline with Tween-80): 90 % of control
- T/C (endpoint: mean survival time, dose: 200.0 mg/kg/injection, schedule: Q04DX003 (ip), vehicle: saline with Tween-80): 94 % of control
- T/C (endpoint: mean survival time, dose: 400.0 mg/kg/injection, schedule: Q04DX003 (ip), vehicle: saline with Tween-80): 90 % of control

Structure (SMILES): CC(=O)[O][Pb]([O]C(C)=O)([c]1ccccc1)[c]1ccccc1
- T/C (endpoint: mean survival time, dose: 6.25 mg/kg/injection, schedule: Q01DX009 (ip), vehicle: Klucel (hydroxypropylcellulose) (HPC)): 89 % of control and 97 % of control
- T/C (endpoint: mean survival time, dose: 12.5 mg/kg/injection, schedule: Q01DX009 (ip), vehicle: Klucel (hydroxypropylcellulose) (HPC)): 87 % of control and 100 % of control
- T/C (endpoint: mean survival time, dose: 25.0 mg/kg/injection, schedule: Q01DX009 (ip), vehicle: Klucel (hydroxypropylcellulose) (HPC)): 96 % of control
- T/C (endpoint: mean survival time, dose: 50.0 mg/kg/injection, schedule: Q01DX009 (ip), vehicle: Klucel (hydroxypropylcellulose) (HPC)): 90 % of control and 95 % of control
- T/C (endpoint: mean survival time, dose: 100.0 mg/kg/injection, schedule: Q01DX009 (ip), vehicle: Klucel (hydroxypropylcellulose) (HPC)): 92 % of control and 97 % of control
- T/C (endpoint: mean survival time, dose: 200.0 mg/kg/injection, schedule: Q01DX009 (ip), vehicle: Klucel (hydroxypropylcellulose) (HPC)): 96 % of control

Structure (SMILES): O=C(OCc1ccccc1)C1CC1
- T/C (endpoint: mean survival time, dose: 25.0 mg/kg/injection, schedule: Q01DX005 (ip), vehicle: saline with Tween-80): 89 % of control
- T/C (endpoint: mean survival time, dose: 25.0 mg/kg/injection, schedule: Q01DX009 (ip), vehicle: saline with Tween-80): 96 % of control
- T/C (endpoint: mean survival time, dose: 50.0 mg/kg/injection, schedule: Q01DX005 (ip), vehicle: saline with Tween-80): 97 % of control
- T/C [1]: 104 % of control
- T/C [4]: 97 % of control
- T/C (endpoint: mean survival time, dose: 100.0 mg/kg/injection, schedule: Q01DX005 (ip), vehicle: saline with Tween-80): 93 % of control
- T/C [2]: 100 % of control
- T/C [5]: 102 % of control
- T/C (endpoint: mean survival time, dose: 200.0 mg/kg/injection, schedule: Q01DX005 (ip), vehicle: saline with Tween-80): 93 % of control
- T/C [3]: 93 % of control
- T/C [6]: 102 % of control

Structure (SMILES): C=C1C(=O)OCC2(CC)CCCCC12 (stereo unspecified)
- T/C (endpoint: mean survival time, dose: 5.0 mg/kg/injection, schedule: Q01DX009 (ip), vehicle: water): 94 % of control
- T/C (endpoint: mean survival time, dose: 10.0 mg/kg/injection, schedule: Q01DX009 (ip), vehicle: water): 88 % of control
- T/C (endpoint: mean survival time, dose: 20.0 mg/kg/injection, schedule: Q01DX009 (ip), vehicle: water): 96 % of control

Structure (SMILES): C[n+]1ccc(Nc2ccc(NC(=O)c3ccc(Nc4cc[n+](C)c5ccc(N)cc45)cc3)cc2)cc1
- T/C (endpoint: mean survival time, dose: 2.0 mg/kg/injection, schedule: Q01DX009 (ip), vehicle: water): 313 % of control
- T/C (endpoint: mean survival time, dose: 4.0 mg/kg/injection, schedule: Q01DX009 (ip), vehicle: water): 341 % of control
- T/C (endpoint: median survival time, dose: 0.25 mg/kg/injection, schedule: Q03HX008 (ip), vehicle: water): 100 % of control
- T/C (endpoint: median survival time, dose: 0.25 mg/kg/injection, schedule: Q03HX016 (ip), vehicle: water): 102 % of control
- T/C (endpoint: median survival time, dose: 0.25 mg/kg/injection, schedule: Q03HX024 (ip), vehicle: water): 110 % of control
- T/C (endpoint: median survival time, dose: 0.5 mg/kg/injection, schedule: Q01DX005 (ip), vehicle: water): 120 % of control
- T/C (endpoint: median survival time, dose: 0.5 mg/kg/injection, schedule: Q01DX009 (ip), vehicle: water): 123 % of control
- T/C (endpoint: median survival time, dose: 0.5 mg/kg/injection, schedule: Q01DX009 (sc), vehicle: water): 96 % of control
- T/C (endpoint: median survival time, dose: 0.5 mg/kg/injection, schedule: Q03HX008 (ip), vehicle: water): 113 % of control
- T/C (endpoint: median survival time, dose: 0.5 mg/kg/injection, schedule: Q03HX016 (ip), vehicle: water): 109 % of control
- T/C (endpoint: median survival time, dose: 1.0 mg/kg/injection, schedule: Q01DX009 (sc), vehicle: water): 101 % of control
- T/C (endpoint: median survival time, dose: 1.0 mg/kg/injection, schedule: Q03HX016 (ip), vehicle: water): 158 % of control
- T/C (endpoint: median survival time, dose: 1.0 mg/kg/injection, schedule: Q03HX024 (ip), vehicle: water): 180 % of control
- T/C (endpoint: median survival time, dose: 2.0 mg/kg/injection, schedule: Q01DX001 (ip), vehicle: water): 103 % of control
- T/C (endpoint: median survival time, dose: 2.0 mg/kg/injection, schedule: Q01DX001 (sc), vehicle: water): 97 % of control
- T/C (endpoint: median survival time, dose: 2.0 mg/kg/injection, schedule: Q01DX005 (ip), vehicle: water): 164 % of control
- T/C (endpoint: median survival time, dose: 2.0 mg/kg/injection, schedule: Q01DX009 (ip), vehicle: water): 274 % of control
- T/C (endpoint: median survival time, dose: 2.0 mg/kg/injection, schedule: Q01DX009 (oral), vehicle: water): 100 % of control
- T/C (endpoint: median survival time, dose: 2.0 mg/kg/injection, schedule: Q01DX009 (sc), vehicle: water): 157 % of control
- T/C (endpoint: median survival time, dose: 2.0 mg/kg/injection, schedule: Q03HX008 (ip), vehicle: water): 157 % of control
- T/C (endpoint: median survival time, dose: 2.0 mg/kg/injection, schedule: Q03HX016 (ip), vehicle: water): 185 % of control
- T/C (endpoint: median survival time, dose: 2.0 mg/kg/injection, schedule: Q03HX024 (ip), vehicle: water): 256 % of control
- T/C (endpoint: median survival time, dose: 2.0 mg/kg/injection, schedule: Q04DX003 (ip), vehicle: water): 113 % of control
- T/C (endpoint: median survival time, dose: 4.0 mg/kg/injection, schedule: Q01DX001 (ip), vehicle: water): 114 % of control
- T/C (endpoint: median survival time, dose: 4.0 mg/kg/injection, schedule: Q01DX001 (sc), vehicle: water): 100 % of control
- T/C (endpoint: median survival time, dose: 4.0 mg/kg/injection, schedule: Q01DX005 (ip), vehicle: water): 252 % of control
- T/C (endpoint: median survival time, dose: 4.0 mg/kg/injection, schedule: Q01DX009 (ip), vehicle: water): 373 % of control
- T/C (endpoint: median survival time, dose: 4.0 mg/kg/injection, schedule: Q01DX009 (oral), vehicle: water): 97 % of control
- T/C (endpoint: median survival time, dose: 4.0 mg/kg/injection, schedule: Q01DX009 (sc), vehicle: water): 241 % of control
- T/C (endpoint: median survival time, dose: 4.0 mg/kg/injection, schedule: Q03HX008 (ip), vehicle: water): 175 % of control
- T/C (endpoint: median survival time, dose: 4.0 mg/kg/injection, schedule: Q03HX016 (ip), vehicle: water): 212 % of control
- T/C (endpoint: median survival time, dose: 4.0 mg/kg/injection, schedule: Q03HX024 (ip), vehicle: water): 321 % of control
- T/C (endpoint: median survival time, dose: 4.0 mg/kg/injection, schedule: Q08DX002 (ip), vehicle: water): 164 % of control
- T/C (endpoint: median survival time, dose: 8.0 mg/kg/injection, schedule: Q01DX001 (oral), vehicle: water): 92 % of control
- T/C (endpoint: median survival time, dose: 8.0 mg/kg/injection, schedule: Q01DX001 (sc), vehicle: water): 105 % of control
- T/C (endpoint: median survival time, dose: 8.0 mg/kg/injection, schedule: Q01DX009 (ip), vehicle: water): 332 % of control
- T/C (endpoint: median survival time, dose: 8.0 mg/kg/injection, schedule: Q01DX009 (oral), vehicle: water): 98 % of control
- T/C (endpoint: median survival time, dose: 8.0 mg/kg/injection, schedule: Q01DX009 (sc), vehicle: water): 307 % of control
- T/C (endpoint: median survival time, dose: 8.0 mg/kg/injection, schedule: Q04DX003 (ip), vehicle: water): 157 % of control
- T/C (endpoint: median survival time, dose: 16.0 mg/kg/injection, schedule: Q01DX001 (oral), vehicle: water): 98 % of control
- T/C (endpoint: median survival time, dose: 16.0 mg/kg/injection, schedule: Q01DX001 (sc), vehicle: water): 121 % of control
- T/C (endpoint: median survival time, dose: 16.0 mg/kg/injection, schedule: Q01DX009 (oral), vehicle: water): 100 % of control
- T/C (endpoint: median survival time, dose: 16.0 mg/kg/injection, schedule: Q01DX009 (sc), vehicle: water): 120 % of control
- T/C (endpoint: median survival time, dose: 32.0 mg/kg/injection, schedule: Q01DX001 (oral), vehicle: water): 96 % of control
- T/C (endpoint: median survival time, dose: 32.0 mg/kg/injection, schedule: Q01DX009 (oral), vehicle: water): 98 % of control
- T/C (endpoint: median survival time, dose: 64.0 mg/kg/injection, schedule: Q01DX001 (oral), vehicle: water): 100 % of control
- T/C (endpoint: median survival time, dose: 64.0 mg/kg/injection, schedule: Q01DX001 (sc), vehicle: water): 208 % of control
- T/C (endpoint: median survival time, dose: 64.0 mg/kg/injection, schedule: Q01DX009 (oral), vehicle: water): 100 % of control
- T/C (endpoint: median survival time, dose: 128.0 mg/kg/injection, schedule: Q01DX001 (oral), vehicle: water): 102 % of control
- T/C (endpoint: median survival time, dose: 256.0 mg/kg/injection, schedule: Q01DX001 (oral), vehicle: water): 92 % of control
